Several values for one entry are separate records, joined by “and”; a condition that tells them apart may be missing. Equal entries are not always repeated. Inconclusive results and toxic doses are left out. Numbered stars: 1 amine (or outer) side, 2 acyl side, 3 side chain; on linkers, the order of the positions; unused ones are H or OH. Bridge positions count the residues as written; N and C are the ends. Square brackets hold non-standard residues; d marks the D form. Peptide text beside a SMILES is read from it. I, II: the chains in the order shown. Actinocin(1to9) = Cc1c2oc3c(C)ccc(C(=O)[*:2])c3nc-2c(C(=O)[*:1])c(N)c1=O; NMeV = CN[CH](C(=O)O)C(C)C; Sar = CNCC(=O)O
Tested on: BDF1 mice, B16 melanoma ip, median survival T/C
Assay: NCI In Vivo Anticancer Drug Screen. Data for tumor model B16 Melanoma (intraperitoneal) in B6D2F1 (BDF1) mice
Settings: endpoint: median survival time, higher = longer survival
Experimental: The antitumor activity of compounds was measured in mice bearing transplantable tumors. Survival or tumor size were measured and the results are expressed as the measurement made in the treated group (T) divided by the measurement made in the vehicle treated control group (C). The tumor model used in this assay is B16 Melanoma (intraperitoneal) in B6D2F1 (BDF1) mice

[1] = dose: 6.25 mg/kg/injection, schedule: Q01DX009 (ip), vehicle: saline
[2] = dose: 12.5 mg/kg/injection, schedule: Q01DX009 (ip), vehicle: saline
[3] = dose: 100.0 mg/kg/injection, schedule: Q01DX009 (ip), vehicle: saline with Tween-80
[4] = dose: 200.0 mg/kg/injection, schedule: Q01DX009 (ip), vehicle: saline with Tween-80
[5] = dose: 100.0 mg/kg/injection, schedule: Q01DX009 (ip), vehicle: Klucel (hydroxypropylcellulose) (HPC)
[6] = dose: 200.0 mg/kg/injection, schedule: Q01DX009 (ip), vehicle: Klucel (hydroxypropylcellulose) (HPC)
[7] = dose: 400.0 mg/kg/injection, schedule: Q01DX009 (ip), vehicle: Klucel (hydroxypropylcellulose) (HPC)
[8] = dose: 2.5 mg/kg/injection, schedule: Q01DX009 (ip), vehicle: Klucel (hydroxypropylcellulose) (HPC)
[9] = dose: 12.5 mg/kg/injection, schedule: Q01DX009 (ip), vehicle: Klucel (hydroxypropylcellulose) (HPC)
[10] = dose: 25.0 mg/kg/injection, schedule: Q01DX009 (ip), vehicle: Klucel (hydroxypropylcellulose) (HPC)
[11] = dose: 50.0 mg/kg/injection, schedule: Q01DX009 (ip), vehicle: Klucel (hydroxypropylcellulose) (HPC)
[12] = dose: 400.0 mg/kg/injection, schedule: Q01DX009 (ip), vehicle: saline with Tween-80
[13] = dose: 25.0 mg/kg/injection, schedule: Q01DX009 (ip), vehicle: saline
[14] = dose: 100.0 mg/kg/injection, schedule: Q01DX009 (ip), vehicle: saline
[15] = dose: 200.0 mg/kg/injection, schedule: Q01DX009 (ip), vehicle: saline

CN1CCC=C(C(=O)N2c3ccccc3Sc3ccc(Cl)cc32)C1
T/C [1]: 96 % of control | T/C [2]: 89 % of control

CCN(CC)c1nc(Cl)nc(NC(C)C)n1
T/C (dose: 50.0 mg/kg/injection, schedule: Q01DX009 (ip), vehicle: saline with Tween-80): 95 % of control | T/C [3]: 97 % of control | T/C [4]: 89 % of control

CO[C@H](/C(C)=C/C=C/C(C)=C/c1coc(C)n1)[C@H](C)[C@H]1C[C@@H](O)[C@@]2(C)O[C@H]2/C=C/[C@@H](C)[C@@H]2C[C@@H](CC(=O)O2)C[C@H]2O[C@@H]2C(=O)O1
T/C (dose: 0.4 mg/kg/injection, schedule: Q01DX009 (ip), vehicle: Klucel (hydroxypropylcellulose) (HPC)): 153 % of control | T/C (dose: 0.5 mg/kg/injection, schedule: Q01DX009 (sc), vehicle: Klucel (hydroxypropylcellulose) (HPC)): 181 % of control

CC(=O)/C=C/c1ccc(O)cc1
T/C [5]: 113 % of control | T/C [6]: 116 % of control | T/C [7]: 93 % of control

Cc1nc2ccc(CCN3CCN(c4ccccc4Cl)CC3)cc2[nH]1
T/C (dose: 4.12 mg/kg/injection, schedule: Q01DX009 (ip), vehicle: saline): 90 % of control | T/C (dose: 8.25 mg/kg/injection, schedule: Q01DX009 (ip), vehicle: saline): 92 % of control

C=C1C(=O)OCC2C(C(=O)O)=CC3C(C)C(C)=CC123 (stereo not drawn)
T/C [8]: 106 % of control | T/C (dose: 3.12 mg/kg/injection, schedule: Q01DX009 (ip), vehicle: other): 94 % of control | T/C (dose: 5.0 mg/kg/injection, schedule: Q01DX009 (ip), vehicle: Klucel (hydroxypropylcellulose) (HPC)): 98 % of control | T/C (dose: 6.25 mg/kg/injection, schedule: Q01DX009 (ip), vehicle: other): 101 % of control | T/C (dose: 10.0 mg/kg/injection, schedule: Q01DX009 (ip), vehicle: Klucel (hydroxypropylcellulose) (HPC)): 96 % of control | T/C (dose: 12.5 mg/kg/injection, schedule: Q01DX009 (ip), vehicle: other): 101 % of control | T/C (dose: 20.0 mg/kg/injection, schedule: Q01DX009 (ip), vehicle: Klucel (hydroxypropylcellulose) (HPC)): 98 % of control | T/C (dose: 25.0 mg/kg/injection, schedule: Q01DX009 (ip), vehicle: other): 111 % of control | T/C (dose: 40.0 mg/kg/injection, schedule: Q01DX009 (ip), vehicle: Klucel (hydroxypropylcellulose) (HPC)): 105 % of control

Cc1cccc(Nc2c(N)nc(N)nc2N)c1
T/C [9]: 101 % of control | T/C [10]: 104 % of control | T/C [11]: 106 % of control

CNC(=O)Oc1ccc2ccccc2c1
T/C [3]: 100 % of control | T/C [4]: 104 % of control | T/C [12]: 93 % of control

NC(Cn1cc(N(CCCl)CCCl)c(=O)[nH]c1=O)C(=O)O (stereo not drawn)
T/C (dose: 6.0 mg/kg/injection, schedule: Q01DX009 (ip), vehicle: saline): 104 % of control | T/C (dose: 12.0 mg/kg/injection, schedule: Q01DX009 (ip), vehicle: saline): 115 % of control

COc1cccc2c1C(=O)c1c(O)c3c(c(O)c1C2=O)C[C@@](O)(C(=O)CN1CCN(C)CC1)C[C@@H]3OC1CC(N)C(O)C(C)O1 (stereo partly drawn)
T/C (dose: 1.56 mg/kg/injection, schedule: Q01DX009 (ip), vehicle: water): 110 % of control | T/C (dose: 3.13 mg/kg/injection, schedule: Q01DX009 (ip), vehicle: water): 113 % of control

Cc1cc(Cl)ccc1NC(=O)c1ccccc1
T/C [5]: 103 % of control | T/C [6]: 99 % of control | T/C [7]: 100 % of control

Cc1ccc2nc(-c3cc(Br)ccc3O)c(-c3cc(Br)ccc3O)nc2c1
T/C [5]: 90 % of control | T/C [6]: 88 % of control

Cc1cc(=O)[nH]c(Nc2ccccc2)n1
T/C [3]: 105 % of control | T/C [4]: 92 % of control | T/C [12]: 102 % of control

CCC(C)C1NC(=O)C(NC(=O)c2c3nc4c(C(=O)NC5C(=O)NC(C(C)CC)C(=O)N6CCCC6C(=O)N(C)CC(=O)N(C)C(C(C)C)C(=O)OC5C)ccc(C)c4oc-3c(C)c(=O)c2N)C(C)OC(=O)C(C(C)C)N(C)C(=O)CN(C)C(=O)C2CCCN2C1=O (stereo not drawn) (I: TIP[Sar][NMeV] / II: TIP[Sar][NMeV]; ester I:1-I:C, II:1-II:C; linker I:N-II:N via Actinocin(1to9); configuration not given here)
T/C (dose: 0.2 mg/kg/injection, schedule: Q01DX001 (ip), vehicle: water): 120 % of control | T/C (dose: 0.4 mg/kg/injection, schedule: Q01DX001 (ip), vehicle: water): 114 % of control | T/C (dose: 0.8 mg/kg/injection, schedule: Q01DX001 (ip), vehicle: water): 123 % of control | T/C (dose: 12.5 micrograms/kg/injection, schedule: Q01DX009 (ip), vehicle: water): 108 % of control | T/C (dose: 25.0 micrograms/kg/injection, schedule: Q01DX009 (ip), vehicle: water): 119 % of control | T/C (dose: 75.0 micrograms/kg/injection, schedule: Q04DX003 (ip), vehicle: water): 115 % of control | T/C (dose: 150.0 micrograms/kg/injection, schedule: Q04DX003 (ip), vehicle: water): 114 % of control

COc1ccccc1Oc1ccc(N=Cc2ccc(C)cc2)cc1
T/C [11]: 102 % of control | T/C [5]: 86 % of control and 102 % of control | T/C [6]: 100 % of control and 111 % of control | T/C [7]: 86 % of control

Cn1c(N)c(C(=O)/C=C/c2ccccc2)c(=O)n(C)c1=O
T/C [11]: 88 % of control

F
T/C [1]: 105 % of control | T/C [2]: 107 % of control | T/C (dose: 12.5 mg/kg/injection, schedule: Q04DX003 (ip), vehicle: saline): 113 % of control | T/C [13]: 92 % of control | T/C (dose: 25.0 mg/kg/injection, schedule: Q04DX003 (ip), vehicle: saline): 100 % of control and 124 % of control | T/C (dose: 50.0 mg/kg/injection, schedule: Q04DX003 (ip), vehicle: saline): 94 % of control

COc1cc([C@@H]2c3cc4c(cc3[C@@H](OC3OC5CO[C@@H](c6cccs6)OC5C(O)C3O)[C@H]3COC(=O)[C@H]23)OCO4)cc(OC)c1O (stereo partly drawn)
T/C (dose: 0.25 mg/kg/injection, schedule: Q01DX009 (ip), vehicle: clinical formulation): 183 % of control | T/C (dose: 0.25 mg/kg/injection, schedule: Q01DX009 (ip), vehicle: saline): 171 % of control | T/C (dose: 0.5 mg/kg/injection, schedule: Q01DX009 (ip), vehicle: clinical formulation): 223 % of control | T/C (dose: 0.5 mg/kg/injection, schedule: Q01DX009 (ip), vehicle: saline): 166 % of control and 214 % of control | T/C (dose: 0.5 mg/kg/injection, schedule: Q01DX009 (ip), vehicle: water): 173 % of control | T/C (dose: 1.0 mg/kg/injection, schedule: Q01DX009 (ip), vehicle: clinical formulation): 269 % of control | T/C (dose: 1.0 mg/kg/injection, schedule: Q01DX009 (ip), vehicle: saline): 185 % of control and 254 % of control | T/C (dose: 1.0 mg/kg/injection, schedule: Q01DX009 (ip), vehicle: water): 178 % of control | T/C (dose: 2.0 mg/kg/injection, schedule: Q01DX009 (ip), vehicle: clinical formulation): 285 % of control | T/C (dose: 2.0 mg/kg/injection, schedule: Q01DX009 (ip), vehicle: saline): 204 % of control and 285 % of control | T/C (dose: 2.0 mg/kg/injection, schedule: Q01DX009 (ip), vehicle: water): 204 % of control | T/C (dose: 4.0 mg/kg/injection, schedule: Q01DX009 (ip), vehicle: saline): 257 % of control

CCCN(CCC)C(=O)c1cccnc1
T/C [14]: 102 % of control | T/C [15]: 106 % of control | T/C (dose: 400.0 mg/kg/injection, schedule: Q01DX009 (ip), vehicle: saline): 113 % of control

OCC1OC(n2cnc3c(=S)nc[nH]c32)CC1O (stereo not drawn)
T/C [11]: 97 % of control | T/C [5]: 92 % of control

C(CSC1=NCCN1)CSC1=NCCN1
T/C [1]: 97 % of control and 102 % of control | T/C [2]: 98 % of control and 107 % of control | T/C [13]: 105 % of control and 107 % of control | T/C (dose: 50.0 mg/kg/injection, schedule: Q01DX009 (ip), vehicle: saline): 96 % of control and 117 % of control | T/C [14]: 101 % of control and 112 % of control | T/C [15]: 107 % of control

O=[N+]([O-])c1cccc(S(=O)(=O)N2CCN(S(=O)(=O)c3cccc([N+](=O)[O-])c3)C2)c1
T/C (dose: 100.0 mg/kg/injection, schedule: Q04DX003 (ip), vehicle: Klucel (hydroxypropylcellulose) (HPC)): 109 % of control | T/C (dose: 200.0 mg/kg/injection, schedule: Q04DX003 (ip), vehicle: Klucel (hydroxypropylcellulose) (HPC)): 102 % of control | T/C (dose: 400.0 mg/kg/injection, schedule: Q04DX003 (ip), vehicle: Klucel (hydroxypropylcellulose) (HPC)): 94 % of control

CC1=CC(=Nc2ccc(N(CCCl)CCCl)cc2)C=C(C)C1=O
T/C (dose: 3.12 mg/kg/injection, schedule: Q01DX009 (ip), vehicle: Klucel (hydroxypropylcellulose) (HPC)): 102 % of control and 110 % of control | T/C [9]: 160 % of control | T/C [10]: 160 % of control | T/C [5]: 158 % of control

COc1cc(C=Nc2ccc(-n3ccnc3C)cc2)ccc1N(CCCl)CCCl
T/C [8]: 105 % of control
